These results are taken from paper doi:10.1101/2024.11.24.625011v1 (biorxiv, 2024).

In this assay the target is T1, RetSDISMED2 (PaRetSp); RetS (residues 41-185) (Pseudomonas aeruginosa, UniProt Q9HUV7).
T1 sequence (Q9HUV7 41-185): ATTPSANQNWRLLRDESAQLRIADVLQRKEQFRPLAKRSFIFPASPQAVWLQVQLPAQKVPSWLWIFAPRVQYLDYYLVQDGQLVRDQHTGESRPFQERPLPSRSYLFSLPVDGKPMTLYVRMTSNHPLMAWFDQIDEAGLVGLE
Kind of assay: isothermal titration calorimetry. Format: binding.

pKd: −log10 of the molar value.

The compound `CCCCc1oc2ccc(NS(C)(=O)=O)cc2c1C(=O)c1ccc(OCCCN(CCCC)CCCC)cc1` [dronedarone] had a pKd of around 5.44. Compound `NC[C@H](O)c1ccc(O)c(O)c1` [norepinephrine] had a pKd of around 6.00.

A word on the pKd: it is −log10 of the Kd, conventionally taken in molar units.
